Consider two compounds from patent US8772252B2, “Coumarin compounds as melanogenesis modifiers and uses thereof” (New York University, priority 2011, dated 2014).

In this assay the test system is cultured murine melanocytes (melan-a). Kind of assay: Melanin assay in cultured murine melanocytes (melan-a) screened with library compounds. As to conditions: melan-a cells, 72 hours of incubation. It counts as cell-based. The method, then: The Spectrum Collection library consisting of 2000 drug compounds or natural products represents a source for the identification of compounds useful in the present invention. The library may be screened to identify novel pigmentation inhibitors in cultured murine melanocytes (melan-a). Compounds are dissolved in dimethylsulfoxide (DMSO) to a final concentration of 10 mM. Screening is performed with cultured melanocytes in 24-well plates followed by melanin assay (see below). A minimum change of 50% in melanin formation is established as significant for a pigmentation inhibitor. DMSO may be used as a negative control and the widely used depigmenting agent, hydroquinone, may be used as a positive control on every plate. Primary screening is performed at a final concentration of 1 μM and potential candidates from the primary screening are reconfirmed in duplicate at final concentrations of 1 and 5 μM.
Melan-a cells are plated at 5×10^4 cells per well in 1 ml of culture media in 24-well plates the day before adding the library compounds. All compounds are added at the indicated final concentrations. Cells are harvested after 72 hours of incubation, and the melanin assay is performed.
For further test and mechanism of action studies, the compounds may be purchased from Sigma, MicroSource or other known suppliers. The compounds are dissolved in dimethylsulfoxide (DMSO) to a final concentration of 10 mM, and are tested for their effect on melanin synthesis at the indicated final concentrations.
For the primary and secondary screening, cells were harvested and dissolved in 200 μl of 2N NaOH in 20% DMSO at 70° C. A 180-μl aliquot of the resulting solution was measured for absorbance at 490 nm.
Cells are harvested in extraction buffer (1% Triton X-100, 50 mM Tris, 2 mM EDTA, 150 mM NaCl, pH 7.5) containing a complete protease inhibitor cocktail (Roche). The lysates were centrifuged at 14,000 rpm for 10 minutes at 4° C. BCA protein assay kit (Pierce) was used to measure the protein concentrations of the supernatants, and bovine serum albumin was used as a standard. The remaining pellets were incubated with 100 μl ethanol-ether (1:1) for 10 minutes at room temperature. After removing the ethanol-ether, the pellets were dissolved in 200 μl of 2N NaOH in 20% DMSO at 70° C. A 180-μl aliquot of the resulting solution was measured for absorbance at 490 nm. The melanin contents were normalized to the total amount of protein.

Take `CC(C)(OC(=O)c1ccccc1)[C@@H]1Cc2cc3ccc(=O)oc3cc2O1` [compound 36]: the activity at 1 µM (Mus musculus, Melan-a, 72 h, 1 μM, read-out: % of control melanin remaining after treatment @ 1 μM) turned out to be 81%. Also, the activity at 5 µM (Mus musculus, Melan-a, 72 h, 5 μM, read-out: % of control melanin remaining after treatment @ 5 μM) is 87%.
For `COc1c(C(C)C)oc2cc3oc(=O)ccc3cc12` [compound 40], the “% of control melanin remaining after treatment @ 1 μM” value (1 μM) was 97%. Further, under “5 μM”, the “% of control melanin remaining after treatment @ 5 μM” value came to 88%.
